Measured values taken from the NIST ThermoML archive (doi:10.1021/je100369a).

Key:
[1] = refractive index (Na D-line) (dimensionless); conditions: 101.33 kPa, Liquid, Standard Abbe refractometry
[2] = 101.33 kPa, Liquid
[3] = mn = molality of the nth substance listed, in mol/kg; conditions: 101 kPa, Liquid

ClCCl [dichloromethane]
Conditions	mass density, 283.15 K [kg/m3]	mass density, 288.15 K [kg/m3]	mass density, 293.15 K [kg/m3]	mass density, 298.15 K [kg/m3]	refractive index, 283.15 K	refractive index, 288.15 K	refractive index, 293.15 K	refractive index, 298.15 K
[1]	–	–	–	–	1.4305	1.4276	1.4251	1.4219
[2]	1343.65	1334.57	1325.43	1316.27	–	–	–	–

Oc1ccccc1C=NCCN=Cc1ccccc1O [2,2'-[ethylenebis(nitrilomethylidyne)]diphenol] + ClCCl
mass density [kg/m3], [3]
Conditions	m1 = 0.0306	m1 = 0.049	m1 = 0.0703	m1 = 0.0903	m1 = 0.1103	m1 = 0.1301	m1 = 0.15	m1 = 0.1702	m1 = 0.1911
283.15 K	1342.32	1341.5	1340.58	1339.65	1338.77	1337.88	1337.01	1336.07	1335.14
288.15 K	1333.32	1332.54	1331.67	1330.82	1329.93	1329.12	1328.26	1327.34	1326.47
293.15 K	1324.26	1323.56	1322.69	1321.91	1321.06	1320.31	1319.5	1318.65	1317.78
298.15 K	1315.18	1314.5	1313.71	1312.95	1312.16	1311.43	1310.67	1309.84	1309.07

Oc1ccccc1C=NCCN=Cc1ccccc1O [2,2'-[ethylenebis(nitrilomethylidyne)]diphenol] + CN(C)C=O
mass density [kg/m3], [3]
Conditions	m1 = 0.0302	m1 = 0.049	m1 = 0.0701	m1 = 0.0913	m1 = 0.1101	m1 = 0.1238	m1 = 0.1483	m1 = 0.1702	m1 = 0.1886
288.15 K	954.99	955.87	956.86	957.85	958.72	959.36	960.5	961.48	962.35
298.15 K	945.49	946.39	947.39	948.39	949.27	949.91	951.05	952.08	952.94
308.15 K	935.97	936.88	937.89	938.9	939.79	940.44	941.6	942.63	943.48
318.15 K	926.38	927.29	928.32	929.35	930.25	930.91	932.08	933.14	933.99

CC(=O)N(C)C [N,N-dimethylethanamide]
Conditions	mass density, 288.15 K [kg/m3]	mass density, 298.15 K [kg/m3]	mass density, 308.15 K [kg/m3]	mass density, 318.18 K [kg/m3]	refractive index, 288.15 K	refractive index, 298.15 K	refractive index, 308.15 K	refractive index, 318.18 K
[1]	–	–	–	–	1.4382	1.4346	1.4312	1.426
[2]	945.5	936.28	927.05	917.79	–	–	–	–

Oc1ccccc1C=NCCN=Cc1ccccc1O [2,2'-[ethylenebis(nitrilomethylidyne)]diphenol] + CC(=O)N(C)C
mass density [kg/m3], [3]
Conditions	m1 = 0.0298	m1 = 0.0503	m1 = 0.0704	m1 = 0.0902	m1 = 0.11	m1 = 0.13	m1 = 0.151	m1 = 0.1699	m1 = 0.1898
288.15 K	946.92	947.9	948.86	949.8	950.76	951.71	952.73	953.61	954.55
298.15 K	937.72	938.72	939.69	940.66	941.6	942.56	943.57	944.49	945.43
308.15 K	928.51	929.52	930.5	931.48	932.43	933.41	934.41	935.35	936.28
318.15 K	919.27	920.29	921.29	922.28	923.25	924.23	925.25	926.19	927.14

ClC(Cl)Cl [trichloromethane]
Conditions	mass density, 283.15 K [kg/m3]	mass density, 288.15 K [kg/m3]	mass density, 293.15 K [kg/m3]	mass density, 298.15 K [kg/m3]	refractive index, 283.15 K	refractive index, 288.15 K	refractive index, 293.15 K	refractive index, 298.15 K
[1]	–	–	–	–	1.45	1.4471	1.4439	1.442
[2]	1496.43	1487.09	1477.68	1468.28	–	–	–	–

C[S+](C)[O-] [dimethyl sulfoxide]
Conditions	mass density, 288.15 K [kg/m3]	mass density, 298.15 K [kg/m3]	mass density, 308.15 K [kg/m3]	mass density, 318.15 K [kg/m3]	refractive index, 288.15 K	refractive index, 298.15 K	refractive index, 308.15 K	refractive index, 318.15 K
[1]	–	–	–	–	1.4793	1.4752	1.471	1.467
[2]	1105.3	1095.29	1085.25	1075.21	–	–	–	–

Oc1ccccc1C=NCCN=Cc1ccccc1O [2,2'-[ethylenebis(nitrilomethylidyne)]diphenol] + C[S+](C)[O-]
mass density [kg/m3], [3]
Conditions	m1 = 0.0098	m1 = 0.03	m1 = 0.0502	m1 = 0.0697	m1 = 0.0903	m1 = 0.1097	m1 = 0.13	m1 = 0.1502	m1 = 0.1701	m1 = 0.1893
288.15 K	1105.42	1105.67	1105.93	1106.18	1106.45	1106.71	1106.99	1107.28	1107.55	1107.81
298.15 K	1095.42	1095.69	1095.96	1096.23	1096.52	1096.79	1097.08	1097.39	1097.66	1097.91
308.15 K	1085.39	1085.68	1085.97	1086.26	1086.56	1086.85	1087.14	1087.45	1087.75	1088.03
318.15 K	1075.36	1075.67	1075.98	1076.28	1076.6	1076.9	1077.22	1077.56	1077.84	1078.13

CN(C)C=O [dimethylformamide]
Conditions	mass density, 288.15 K [kg/m3]	mass density, 298.15 K [kg/m3]	mass density, 308.15 K [kg/m3]	mass density, 318.15 K [kg/m3]	refractive index, 288.15 K	refractive index, 298.15 K	refractive index, 308.15 K	refractive index, 318.15 K
[1]	–	–	–	–	1.431	1.4276	1.423	1.418
[2]	953.58	944.06	934.52	924.9	–	–	–	–

Oc1ccccc1C=NCCN=Cc1ccccc1O [2,2'-[ethylenebis(nitrilomethylidyne)]diphenol] + ClC(Cl)Cl
mass density [kg/m3], [3]
Conditions	m1 = 0.0099	m1 = 0.03	m1 = 0.0498	m1 = 0.0702	m1 = 0.0904	m1 = 0.1102	m1 = 0.1336	m1 = 0.1501	m1 = 0.19
283.15 K	1495.46	1493.53	1491.63	1489.69	1487.79	1485.95	1483.73	1482.28	1478.69
288.15 K	1486.15	1484.27	1482.44	1480.56	1478.71	1476.92	1474.75	1473.37	1469.85
293.15 K	1476.77	1474.97	1473.19	1471.36	1469.56	1467.84	1465.71	1464.38	1460.93
298.15 K	1467.41	1465.66	1463.95	1462.15	1460.41	1458.74	1456.68	1455.37	1452.05
